Series [1] addresses T1, Serine protease 1 (Bos taurus) (UniProt P00760).
T1 sequence (whole entry): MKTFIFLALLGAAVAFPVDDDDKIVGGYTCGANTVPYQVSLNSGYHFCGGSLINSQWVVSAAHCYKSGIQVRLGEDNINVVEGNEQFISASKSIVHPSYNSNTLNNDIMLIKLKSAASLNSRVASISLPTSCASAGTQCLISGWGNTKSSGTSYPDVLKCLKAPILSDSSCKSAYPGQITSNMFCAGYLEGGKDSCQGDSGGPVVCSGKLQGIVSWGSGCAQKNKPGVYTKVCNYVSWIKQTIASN
Description: (§1) Trypsin inhibitory potency was evaluated from the catalytic constant Kcat.

For series [2], the target named is T2, Serine protease 1 (Bos taurus, UniProt P00760).
T2 sequence (P00760 whole entry): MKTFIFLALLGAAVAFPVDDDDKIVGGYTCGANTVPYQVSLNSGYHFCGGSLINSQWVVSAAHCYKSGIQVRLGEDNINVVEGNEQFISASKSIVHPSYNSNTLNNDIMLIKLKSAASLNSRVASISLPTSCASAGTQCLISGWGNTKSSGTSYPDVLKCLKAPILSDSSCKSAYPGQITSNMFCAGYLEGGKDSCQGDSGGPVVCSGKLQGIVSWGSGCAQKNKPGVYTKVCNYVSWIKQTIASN
The series can be described thus: Inhibitory activity against trypsin.

In series [3] the target is T2, Serine protease 1. Kind of series: Inhibitory activity against trypsin mediated Tyr-Gly-Aer-p- nitroaniline.
The target in series [4] is T1, Serine protease 1 (Bos taurus). This is another data set of the same source.
Description: as §1
Substrate in series [5]: CC[C@H](C)[C@H](NC(=O)[C@H](CCCCN)NC(=O)CNC(=O)[C@H](Cc1ccc(O)cc1)NC(=O)[C@@H](N)Cc1ccc(O)cc1)C(=O)N[C@@H](Cc1ccc(O)cc1)C(=O)N[C@@H](CCCN=C(N)N)C(=O)N1CCC[C@H]1C(=O)N[C@@H](CC(=O)O)C(=O)N[C@@H](CCCCN)C(=O)N[C@@H](CCSC)C(=O)O
Description: Trypsin inhibitory potency was evaluated from the Michaelis-Menten constant KM.
The following applies: Bos taurus.

As usually defined, the IC50 is the concentration needed to halve the response being measured. The term Ki denotes the dissociation constant of the complex between target and ligand, obtained from inhibition or displacement. A low value points to higher affinity. Usually Km stands for the substrate concentration at which the rate is half of its maximum.

As for `CC[C@H](C)[C@H](NC(=O)[C@H](CCCCN)NC(=O)[C@H](C)NC(=O)CNC(=O)[C@H](Cc1ccc(O)cc1)NC(=O)[C@@H](N)Cc1ccc(O)cc1)C(=O)N[C@@H](C)C(=O)N[C@@H](CCCN=C(N)N)C(=O)N1CCC[C@@H]1C(=O)N[C@@H](CC(=O)O)C(=O)N[C@@H](CCCCN)C(=O)N[C@@H](CCSC)C(=O)O`, the k cat in series [1] worked out at 1.3 s⁻¹.
The molecule `CC[C@H](C)[C@H](NC(=O)[C@H](CCCCN)NC(=O)[C@H](C)NC(=O)CNC(=O)[C@H](Cc1ccc(O)cc1)NC(=O)[C@@H](N)Cc1ccc(O)cc1)C(=O)N[C@@H](Cc1ccc(O)cc1)C(=O)N[C@@H](C)C(=O)N1CCC[C@@H]1C(=O)N[C@@H](CC(=O)O)C(=O)N[C@@H](CCCCN)C(=O)N[C@@H](CCSC)C(=O)O` had a k cat in series [1] of 0.6 s⁻¹.
Same read-out and setting: then `CC[C@H](C)[C@H](NC(=O)[C@H](CCCN=C(N)N)NC(=O)[C@H](C)NC(=O)CNC(=O)[C@H](Cc1ccc(O)cc1)NC(=O)[C@@H](N)Cc1ccc(O)cc1)C(=O)N[C@@H](Cc1ccc(O)cc1)C(=O)N[C@@H](CCCN=C(N)N)C(=O)N1CCC[C@@H]1C(=O)N[C@@H](CC(=O)O)C(=O)N[C@@H](CCCCN)C(=O)N[C@@H](CCSC)C(=O)O`, with 30 s⁻¹; and H-YYGAKAYRPDKM-OH, with 87 s⁻¹.
In turn, H-YYGAKIYRPDKM-OH gave a half-inhibitory concentration (IC50) against Serine protease 1 [2] of 10 µM. At Serine protease 1 [3], this molecule came in with a Ki of 9.4 µM.
In series [4], H-YYGKIYRPDKM-OH showed a k cat of 0.73 s⁻¹.

B1: Serine protease 1 (Bos taurus), P00760 (protein)
chain: MKTFIFLALLGAAVAFPVDDDDKIVGGYTCGANTVPYQVSLNSGYHFCGGSLINSQWVVSAAHCYKSGIQVRLGEDNINVVEGNEQFISASKSIVHPSYNSNTLNNDIMLIKLKSAASLNSRVASISLPTSCASAGTQCLISGWGNTKSSGTSYPDVLKCLKAPILSDSSCKSAYPGQITSNMFCAGYLEGGKDSCQGDSGGPVVCSGKLQGIVSWGSGCAQKNKPGVYTKVCNYVSWIKQTIASN
Take B1: in series [5], the Km was determined as 24 mM.

Values taken from ChEMBL document CHEMBL1150452, “Kinetic characterization of a peptide inhibitor of trypsin isolated from a synthetic peptide combinatorial library” (Bioorg Med Chem Lett, 1995).
